System: hCerOs
Test: Two-photon calcium imaging of intact hCerOs with bath application of drugs
Assay type: cell-based, human

Compound: NC1=N[C@H](O)[C@H]2[C@H]3O[C@]4(O)O[C@@H]([C@@H](O)[C@@]2(N1)[C@@H]4O)[C@]3(O)CO [Tetrodotoxin]
- sensitivity of individual Ca2+ neuronal calcium signals: sensitive
